# From PubChem BioAssay AID2060909 (Molecular Pharmacology Branch, DTP, NCI, 2025)
# System: 362531-283-R-J2-PDC complex spheroid viability
# Assay: Anticancer human tumor 362531-283-R-J2-PDC patient-derived colon adenocarcinoma cell line growth inhibition [RAS]
# Conditions: for IC50: curve of first compound; for viability, T/C: stronger effect = lower value
# Summary of the method: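 Agents were tested in combination matrices in half-log decrements from a top concentration at or near clinical Cmax (10 microM if undetermined). Targets were multi-cell spheroids of tumour lines plus HUVEC and MSC stromal cells.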
# 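Further: spheroids exposed to the agents for 7 days before readout.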
# 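Wherever viability, T/C is given: luminescence viability as percent of DMSO vehicle control wells.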
smiles,measurement,setting,value
C=CC(=O)N1CCN(c2nc(OCC3CCCN3C)nc3c(F)c(-c4nc(N)cc(C)c4C(F)(F)F)c(Cl)cc23)C(C)C1 (centres undefined) + C#Cc1c(F)ccc2cc(O)cc(-c3ncc4c(N5CC6CCC(C5)N6)nc(OCC56CCCN5CC(F)C6)nc4c3F)c12,IC50,second compound 0.0316 µM,> 1 µM
same,IC50,second compound 0.1 µM,> 1 µM
same,IC50,second compound 0.316 µM,> 1 µM
same,IC50,second compound 1 µM,> 1 µM
same,IC50,second compound 3.16 µM,> 1 µM
same,IC50,second compound 10 µM,< 0.00316 µM
same,"viability, T/C","second compound 0.0316 µM, first compound 0.00316 µM",98.1%
same,"viability, T/C","second compound 0.0316 µM, first compound 0.01 µM",94.4%
same,"viability, T/C","second compound 0.0316 µM, first compound 0.0316 µM",95.5%
same,"viability, T/C","second compound 0.0316 µM, first compound 0.1 µM",98.4%
same,"viability, T/C","second compound 0.0316 µM, first compound 0.316 µM",97.8%
same,"viability, T/C","second compound 0.0316 µM, first compound 1 µM",89.6%
same,"viability, T/C","second compound 0.1 µM, first compound 0.00316 µM",93.6%
same,"viability, T/C","second compound 0.1 µM, first compound 0.01 µM",93.1%
same,"viability, T/C","second compound 0.1 µM, first compound 0.0316 µM",97.1%
same,"viability, T/C","second compound 0.1 µM, first compound 0.1 µM",92.3%
same,"viability, T/C","second compound 0.1 µM, first compound 0.316 µM",98.7%
same,"viability, T/C","second compound 0.1 µM, first compound 1 µM",98.3%
same,"viability, T/C","second compound 0.316 µM, first compound 0.00316 µM",82.6%
same,"viability, T/C","second compound 0.316 µM, first compound 0.01 µM",78.6%
same,"viability, T/C","second compound 0.316 µM, first compound 0.0316 µM",90.9%
same,"viability, T/C","second compound 0.316 µM, first compound 0.1 µM",97.8%
same,"viability, T/C","second compound 0.316 µM, first compound 0.316 µM",89.3%
same,"viability, T/C","second compound 0.316 µM, first compound 1 µM",90.7%
same,"viability, T/C","second compound 1 µM, first compound 0.00316 µM",80.7%
same,"viability, T/C","second compound 1 µM, first compound 0.01 µM",74.4%
same,"viability, T/C","second compound 1 µM, first compound 0.0316 µM",82.7%
same,"viability, T/C","second compound 1 µM, first compound 0.1 µM",70.4%
same,"viability, T/C","second compound 1 µM, first compound 0.316 µM",82.7%
same,"viability, T/C","second compound 1 µM, first compound 1 µM",74.4%
same,"viability, T/C","second compound 3.16 µM, first compound 0.00316 µM",66.5%
same,"viability, T/C","second compound 3.16 µM, first compound 0.01 µM",69%
same,"viability, T/C","second compound 3.16 µM, first compound 0.0316 µM",71.2%
same,"viability, T/C","second compound 3.16 µM, first compound 0.1 µM",80.8%
same,"viability, T/C","second compound 3.16 µM, first compound 0.316 µM",58.1%
same,"viability, T/C","second compound 3.16 µM, first compound 1 µM",71.7%
same,"viability, T/C","second compound 10 µM, first compound 0.00316 µM",39.9%
same,"viability, T/C","second compound 10 µM, first compound 0.01 µM",48%
same,"viability, T/C","second compound 10 µM, first compound 0.0316 µM",46.7%
same,"viability, T/C","second compound 10 µM, first compound 0.1 µM",38.1%
same,"viability, T/C","second compound 10 µM, first compound 0.316 µM",49.6%
same,"viability, T/C","second compound 10 µM, first compound 1 µM",42.7%
NC1c2ccccc2OC12CCN(c1cnc3c(N4CCCc5ncccc54)n[nH]c3n1)CC2 (centres undefined) + CCn1c(-c2cccnc2C(C)OC)c2c3cc(ccc31)N1CCOC(CC(NC(=O)C(C(C)C)N(C)C(=O)C3(F)CCN(C(=O)C#CC(C)(C)N(C)C)CC3)C(=O)N3CCCC(N3)C(=O)OCC(C)(C)C2)C1,IC50,second compound 0.000949 µM,5.44 µM
same,IC50,second compound 0.003 µM,> 10 µM
same,IC50,second compound 0.00949 µM,7.5 µM
same,IC50,second compound 0.03 µM,6.81 µM
same,IC50,second compound 0.0949 µM,5.87 µM
same,IC50,second compound 0.3 µM,> 10 µM
same,"viability, T/C","second compound 0.000949 µM, first compound 0.0316 µM",91.7%
same,"viability, T/C","second compound 0.000949 µM, first compound 0.1 µM",86.7%
same,"viability, T/C","second compound 0.000949 µM, first compound 0.316 µM",76.7%
same,"viability, T/C","second compound 0.000949 µM, first compound 1 µM",72.8%
same,"viability, T/C","second compound 0.000949 µM, first compound 3.16 µM",54.8%
same,"viability, T/C","second compound 0.000949 µM, first compound 10 µM",43%
same,"viability, T/C","second compound 0.003 µM, first compound 0.0316 µM",94.8%
same,"viability, T/C","second compound 0.003 µM, first compound 0.1 µM",87.5%
same,"viability, T/C","second compound 0.003 µM, first compound 0.316 µM",75%
same,"viability, T/C","second compound 0.003 µM, first compound 1 µM",66.8%
same,"viability, T/C","second compound 0.003 µM, first compound 3.16 µM",63.3%
same,"viability, T/C","second compound 0.003 µM, first compound 10 µM",52%
same,"viability, T/C","second compound 0.00949 µM, first compound 0.0316 µM",86.6%
same,"viability, T/C","second compound 0.00949 µM, first compound 0.1 µM",88.5%
same,"viability, T/C","second compound 0.00949 µM, first compound 0.316 µM",71.3%
same,"viability, T/C","second compound 0.00949 µM, first compound 1 µM",80.3%
same,"viability, T/C","second compound 0.00949 µM, first compound 3.16 µM",69.9%
same,"viability, T/C","second compound 0.00949 µM, first compound 10 µM",43.2%
same,"viability, T/C","second compound 0.03 µM, first compound 0.0316 µM",95.8%
same,"viability, T/C","second compound 0.03 µM, first compound 0.1 µM",74.2%
same,"viability, T/C","second compound 0.03 µM, first compound 0.316 µM",77.4%
same,"viability, T/C","second compound 0.03 µM, first compound 1 µM",76.4%
same,"viability, T/C","second compound 0.03 µM, first compound 3.16 µM",65.6%
same,"viability, T/C","second compound 0.03 µM, first compound 10 µM",41.3%
same,"viability, T/C","second compound 0.0949 µM, first compound 0.0316 µM",95.3%
same,"viability, T/C","second compound 0.0949 µM, first compound 0.1 µM",85.2%
same,"viability, T/C","second compound 0.0949 µM, first compound 0.316 µM",79%
same,"viability, T/C","second compound 0.0949 µM, first compound 1 µM",74.3%
same,"viability, T/C","second compound 0.0949 µM, first compound 3.16 µM",56.4%
same,"viability, T/C","second compound 0.0949 µM, first compound 10 µM",42.8%
same,"viability, T/C","second compound 0.3 µM, first compound 0.0316 µM",87.8%
same,"viability, T/C","second compound 0.3 µM, first compound 0.1 µM",75.6%
same,"viability, T/C","second compound 0.3 µM, first compound 0.316 µM",76.9%
same,"viability, T/C","second compound 0.3 µM, first compound 1 µM",67.4%
same,"viability, T/C","second compound 0.3 µM, first compound 3.16 µM",57.7%
same,"viability, T/C","second compound 0.3 µM, first compound 10 µM",53.1%
